# Experimental data taken from patent US10894772B2, “Flavor modulator having pyridine derivative or salt thereof as active ingredient” (T. HASEGAWA CO., LTD., priority 2015, dated 2021).
# What was measured:
# Assay type in all cases: in vivo
# panelists [1] = experiment: Addition to soup broth for udon noodle; details: 0.05 ppm added to commercial soup broth for udon noodle; 100 ml diluted with 200 ml hot water; 5 panelists
# Method: (§1) 0.05 ppm of any of the invention products 1 to 6 was added to commercially-available soup broth for udon noodle (tripe strength). 200 ml of hot water was added to 100 ml of each of the added soup broth and the non-added soup broth, and well-trained 5 panelists tasted them for organoleptic evaluation in point of umami.
# as §1, with “2-(3-benzyloxypropyl)pyridine (invention product 101)” for “any of the invention products 1 to 6”
# as §1, with “as 2-(3-benzyloxypropyl)pyridine therein” for “of any”, “product 201” for “products 1 to 6”
# panelists [2] = experiment: Confirmation of umami enhancing effect: comparison with edible salt and 0.05 mass % MSG solution; details: 10 ppb with 0.3 mass % edible salt in water; 5 panelists; Example 110
# Description: Well-trained 5 panelists tasted an aqueous solution of 0.3 mass % edible salt and 0.05 mass % sodium glutamate (MSG), and an aqueous solution of 0.3 mass edible salt and 10 ppb of 2-(3-benzyloxypropyl)pyridine (invention product 101), for organoleptic evaluation of umami.
# Well-trained 5 panelists tasted (1) an aqueous solution of 0.3 mass % edible salt and 0.05 mass % sodium glutamate (MSG), and (2) and an aqueous solution of 0.3 mass % edible salt and […], as 2-(3-benzyloxypropyl)pyridine therein, of the invention product 201, for organoleptic evaluation in point of umami.
# panelists [3] = experiment: Confirmation of umami enhancing effect in sodium inosinate solution; details: 10 ppb added to aqueous 0.1 mass % sodium inosinate solution; 5 panelists
# Description: Well-trained 5 panelists tasted an aqueous solution of 0.1 mass % sodium inosinate (5′-IMP⋅2Na), and aqueous solutions prepared by adding to the aqueous 0.1 mass % sodium inosinate solution, 10 ppb of any of the invention products 1 to 6, for organoleptic evaluation in point of umami.
# Well-trained 5 panelists tasted an aqueous solution of 0.1 mass % sodium inosinate (5′-IMP⋅2Na), and an aqueous solution prepared by adding thereto 10 ppb of 2-(3-benzyloxypropyl)pyridine (invention product 101), for organoleptic evaluation in point of umami.
# Well-trained 5 panelists tasted (1) 0.1 mass % sodium inosinate (5′-IMP⋅2Na) and (2) an aqueous solution of 0.1 mass % sodium inosinate and 5 ppb, as 2-(3-benzyloxypropyl)pyridine therein, of the invention product 201, for organoleptic evaluation in point of umami.
# panelists [4] = experiment: Confirmation of umami in water (organoleptic evaluation of taste and flavor in words); details: for Organoleptic Evaluation Taste / Organoleptic Evaluation Flavor: average of 5 panelists
# Method: A solution was prepared by dissolving 2-(3-benzyloxypropyl)pyridine (invention product 101) in water to have a concentration shown in Table 15. As a comparative product, a solution was prepared by dissolving 2-(2-benzyloxyethyl)pyridine (comparative product 1 prepared in Comparative Example 1) to have the same concentration. Well-trained 5 panelists tasted the solutions and non-added water for organoleptic evaluation of taste and flavor.
# The invention product 101 and the comparative product 1 were individually diluted with ethanol to have a proper concentration, and then further diluted with water to prepare an aqueous solution of 2-(3-benzyloxypropyl)pyridine (invention product 101 produced in Example 101) and that of 2-(2-benzyloxyethyl)pyridine (comparative product synthesized in Comparative Example 1) each having a concentration shown in the following Table 21. Well-trained panelists tasted the solution having a different concentration and non-added water for organoleptic evaluation in point of taste and flavor. […]
# panelists [5] = experiment: Confirmation of umami and saltiness enhancement in edible salt and MSG solution; details: 10 ppb added to aqueous 0.3 mass % edible salt and 0.03 mass % sodium glutamate (MSG); 5 panelists
# Description: Well-trained 5 panelists tasted an aqueous solution of 0.3 mass % edible salt and 0.03 mass % sodium glutamate (MSG), and aqueous solutions prepared by adding to the aqueous solution, 10 ppb of any of the invention products 1 to 6, for organoleptic evaluation in point of umami and saltiness enhancement.
# (§2) Well-trained 5 panelists tasted an aqueous solution of 0.3 mass % edible salt and 0.03 mass % sodium glutamate (MSG), and an aqueous solution prepared by adding to the aqueous solution, 10 ppb of 2-(3-benzyloxypropyl)pyridine (invention product 101), for organoleptic evaluation in point of umami and saltiness enhancement.
# as §2, with “ppb, as 2-(3-benzyloxypropyl)pyridine therein,” for “ppb”, “the invention” for “2-(3-benzyloxypropyl)pyridine (invention”, “201 or the reference product 202,” for “101),”
# panelists [6] = experiment: Flavor evaluation of ethanol solution (bottle mouth and flavor paper); details: 0.1% ethanol solution, average evaluation of 5 panelists
# Method: (§3) A 1% ethanol solution of the invention products 1 to 6 prepared in Examples 1 to 6 was prepared as an evaluation solution. The evaluation solution was prepared in a sample bottle. Regarding the flavor of the sample smelling from the bottle mouth and the flavor of a flavor paper prepared by infiltrating the evaluation solution into a paper, well-trained 5 panelists tested the solution for flavor evaluation.
# as §3, with “0.1%” for “1%”, “product 101 (2-(3-benzyloxypropyl)pyridine)” for “products 1 to 6”, “Example 101” for “Examples 1 to 6”, “evaluation. A typical evaluation of the product is as follows.” for “evaluation.”
# panelists [7] = experiment: Confirmation of umami imparting and saltiness enhancing effect in 0.3 mass % sodium chloride (evaluation in words)
# Method: An aqueous 0.3 mass % sodium chloride solution (control), and solutions of 2-(3-benzyloxypropyl)pyridine dissolved in a 0.3 mass % sodium chloride solution to have the concentration shown in Table 17 were prepared. As comparative products, an aqueous 0.3 mass % sodium chloride solution (control), and a solution of a comparative product, 2-(2-benzyloxyethyl)pyridine dissolved in a 0.3 mass % sodium chloride solution to have the same concentration were prepared. Well-trained 5 panelists tasted the solutions for organoleptic evaluation of umami impartment and saltiness enhancement.
# An aqueous 0.3 mass % sodium chloride solution (control), and solutions of the invention product 201 or the reference product 202 dissolved in a 0.3 mass % sodium chloride solution to have the concentration as 2-(3-benzyloxypropyl)pyridine therein shown in the following Table 23 were prepared. Well-trained 5 panelists tasted the solutions for organoleptic evaluation of umami impartment and saltiness enhancement.
# panelists [8] = experiment: Confirmation of sweetness enhancing effect in sucrose solution; details: 5 ppb added to aqueous 3 mass % sucrose solution; 5 panelists
# Description: Well-trained 5 panelists tasted an aqueous 3 mass % sucrose solution, and aqueous solutions prepared by adding to the aqueous 3 mass % sucrose solution, 5 ppb of any of the invention products 1 to 6, for organoleptic evaluation in point of sweetness.
# Well-trained 5 panelists tasted an aqueous 3 mass % sucrose solution, and an aqueous solution prepared by adding thereto 5 ppb of 2-(3-benzyloxypropyl)pyridine (invention product 101), for organoleptic evaluation in point of sweetness.
# Well-trained 5 panelists tasted (1) an aqueous 3 mass % sucrose solution and (2) an aqueous solution prepared by adding […], as 2-(3-benzyloxypropyl)pyridine therein, of the invention product 201 to the aqueous 3 mass % sucrose solution, for organoleptic evaluation in point of sweetness.
# [9] = aqueous solution, Reference Example 201
# [10] = in 0.3 mass % sodium chloride solution, Example 108
smiles,measurement,setting,value
"c1ccc(COCCCc2ccccn2)cc1 [invention product 101, 2-(3-benzyloxypropyl)pyridine]","umami, saltiness and sweetness compared with non-added soup broth",panelists [1],"stronger umami, saltiness and sweetness"
same,umami compared with aqueous 0.3 mass % edible salt and 0.05 mass % sodium glutamate (MSG),panelists [2],umami of almost the same level
same,umami compared with the non-added solution,panelists [3],stronger umami
same,Organoleptic Evaluation Taste,"panelists [4]; 0.1 ppm dissolved in water, Example 107",Weakly umami.
same,Organoleptic Evaluation Taste,"panelists [4]; 0.1 ppm, diluted with ethanol, then with water, Reference Example 201",Weakly umami.
same,Organoleptic Evaluation Flavor,"panelists [4]; 2 ppb dissolved in water, Example 107",Nothing at all.
same,Organoleptic Evaluation Flavor,"panelists [4]; 2 ppb, diluted with ethanol, then with water, Reference Example 201",Nothing at all.
same,Organoleptic Evaluation Taste,"panelists [4]; 10 ppb dissolved in water, Example 107",Slightly umami
same,Organoleptic Evaluation Taste,"panelists [4]; 10 ppb, diluted with ethanol, then with water, Reference Example 201",Slightly umami.
same,Organoleptic Evaluation Taste,"panelists [4]; 20 ppm dissolved in water, Example 107",Strongly umami.
same,Organoleptic Evaluation Taste,"panelists [4]; 20 ppm, diluted with ethanol, then with water, Reference Example 201",Strongly umami.
same,concentration to provide the same umami intensity relative to that of 2-(2-benzyloxyethyl)pyridine,panelists [4]; [9],about 1/10
same,umami imparting effect relative to 2-(2-benzyloxyethyl)pyridine,panelists [4]; [9],~10 times
same,concentration to provide the same umami intensity relative to that of 2-(2-benzyloxyethyl)pyridine,"panelists [4]; in water, Example 107",about 1/10
same,umami and saltiness compared with the non-added solution,panelists [5],stronger umami and saltiness
same,Flavor Evaluation,panelists [6],"somewhat herbal, green and nutty flavor of natural impression"
same,Organoleptic Evaluation (umami impartment and saltiness enhancement),"panelists [7]; 1 ppb in 0.3 mass % sodium chloride solution, average of 5 panelists, Example 108",Slightly umami as compared with control.
same,concentration providing umami in 0.3 mass % sodium chloride solution relative to that of the solution in water,panelists [7]; Example 108,about 1/10
same,concentration providing umami in 0.3 mass % sodium chloride solution relative to that of the solution in water,panelists [7]; Example 203,about 1/10
same,concentration to realize the same degree of umami intensity relative to that of 2-(2-benzyloxyethyl)pyridine,panelists [7]; [10],about 1/10
same,umami imparting effect relative to 2-(2-benzyloxyethyl)pyridine (comparative product 1),panelists [7]; [10],about 10 times
same,sweetness compared with the non-added solution,panelists [8],stronger sweetness
